Reference: ChEMBL document CHEMBL4811310, “Antimalarial activity of 2,6-dibenzylidenecyclohexanone derivatives” (Bioorg Med Chem Lett, 2021)
Converted amounts (≈) assume the structure as drawn.

How the values were obtained:
[1] = test system: Plasmodium falciparum; assay: Antimalarial activity against CQ-sensitive Plasmodium falciparum 3D7 MRA-102 infected in human O-positive erythrocytes assessed as inhibition of parasite growth; type: functional, organism-based; conditions: 3D7 MRA-102, Erythrocyte
[2] = test system: BJ; assay: Cytotoxicity against human BJ cells assessed as reduction in cell viability; type: cell-based
[3] = Solubility in PBS buffer at pH 7.4; type: physicochemical
[4] = Therapeutic index, ratio of EC50 for cytotoxicity against human BJ cells to EC50 for antimalarial activity against CQ-sensitive Plasmodium falciparum 3D7 MRA-102 infected in human O-positive erythrocytes; type: toxicity, cell-based; conditions: read-out: Ratio EC50
[5] = Cytotoxicity against human BJ cells assessed as reduction in cell viability at 58 uM; type: cell-based; conditions: read-out: INH
[6] = test system: Plasmodium falciparum; assay: Antimalarial activity against Plasmodium falciparum V1S infected in human erythrocytes assessed as inhibition of parasite growth; type: functional, organism-based; conditions: Erythrocyte
[7] = test system: Plasmodium falciparum; assay: Antimalarial activity against Plasmodium falciparum K1 infected in human erythrocytes assessed as inhibition of parasite growth; type: functional, organism-based; conditions: K1, Erythrocyte
[8] = test system: Plasmodium falciparum; assay: Antimalarial activity against CQ-sensitive Plasmodium falciparum 3D7 MRA-102 infected in human O-positive erythrocytes assessed as inhibition of parasite growth at 16 uM; type: functional; conditions: 3D7 MRA-102, Erythrocyte

SMILES | EC50 [1] [µM] | EC50 [2] [µM] | solubility [3] [µM] | selectivity ratio [4] | cytotoxicity at 58 µM [5] [%] | EC50 [6] [µM] | EC50 [7] [µM] | inhibition at 16 µM [8] [%]
O=C1/C(=C/c2cccc(C(F)(F)F)c2)CC(c2ccccc2)C/C1=C\c1cccc(C(F)(F)F)c1 (configuration not stated) | 0.491 | 1.53 | 1.1 (≈ 0.535 µg/mL) | 3 | – | – | – | –
N#CC1(c2ccccc2)C/C(=C\c2ccc(C(F)(F)F)cc2)C(=O)/C(=C/c2ccc(C(F)(F)F)cc2)C1 (configuration not stated) | 0.207 | 0.406 | < 1 | 2 | – | – | – | –
NC(=O)N1c2ccccc2C=Cc2ccccc21 [CARBAMAZEPINE] | – | – | > 100 | – | – | – | – | –
O=C1/C(=C/c2cccc(C(F)(F)F)c2)CSC/C1=C\c1cccc(C(F)(F)F)c1 | 0.82 | 23.2 | 1.2 (≈ 0.514 µg/mL) | 28 | – | – | – | –
N#CC1(c2ccccc2)C/C(=C\c2cccc(F)c2)C(=O)/C(=C/c2cccc(F)c2)C1 (configuration not stated) | 1.13 | 2.27 | < 1 | 2 | – | – | – | –
N#CC1(c2ccccc2)CC(Cc2cccc(C(F)(F)F)c2)C(=O)C(Cc2cccc(C(F)(F)F)c2)C1 (configuration not stated) | 1.03 | > 24 | 2.3 (≈ 1.19 µg/mL) | > 23 | – | – | – | –
N#CC1(c2ccccc2)C/C(=C\c2cccc(C(F)(F)F)c2)C(O)/C(=C/c2cccc(C(F)(F)F)c2)C1 (configuration not stated) | 3.21 | > 24 | 2.5 (≈ 1.28 µg/mL) | > 7 | – | – | – | –
CC(=O)[C@]1(O)Cc2c(O)c3c(c(O)c2[C@@H](O[C@H]2C[C@H](N)[C@H](O)[C@H](C)O2)C1)C(=O)c1ccccc1C3=O [IDARUBICIN] | – | – | – | – | 100 | – | – | –
O=C1/C(=C/c2cccc(C(F)(F)F)c2)COC/C1=C\c1cccc(C(F)(F)F)c1 | 1.16 | 23.7 | 1.4 (≈ 0.577 µg/mL) | 20 | – | – | – | –
CC(C)(C)C1C/C(=C\c2cccc(C(F)(F)F)c2)C(=O)/C(=C/c2cccc(C(F)(F)F)c2)C1 (configuration not stated) | 0.641 | > 24 | < 1 | > 37 | – | – | – | –
N#CC1(c2ccccc2)C/C(=C\c2ccccc2)C(=O)/C(=C/c2ccccc2)C1 (configuration not stated) | 1.36 | 5.85 | < 1 | 4 | – | – | – | –
CC1C/C(=C\c2cccc(C(F)(F)F)c2)C(=O)/C(=C/c2cccc(C(F)(F)F)c2)C1 (configuration not stated) | 1.1 | 20.1 | < 1 | 18 | – | – | – | –
N#CC1(c2ccccc2)C/C(=C\c2cccc(C(F)(F)F)c2)C(=O)/C(=C/c2cccc(C(F)(F)F)c2)C1 (configuration not stated) | 0.331 | 0.57 | – | 2 | – | 0.25 | 0.53 | –
O=C1/C(=C/c2cccc(C(F)(F)F)c2)CCC/C1=C\c1cccc(C(F)(F)F)c1 | 2.29 | 23.5 | < 1 | 10 | – | – | – | –
O=C1/C(=C/c2cccc(C(F)(F)F)c2)CS(=O)(=O)C/C1=C\c1cccc(C(F)(F)F)c1 | 0.393 | 0.12 | < 1 | < 1 | – | – | – | –
O[C@@H](c1cc(C(F)(F)F)nc2c(C(F)(F)F)cccc12)[C@H]1CCCCN1 [(S,R)-MEFLOQUINE] | – | – | – | – | – | – | – | 100
CCCSc1ccc2nc(NC(=O)OC)[nH]c2c1 [ALBENDAZOLE] | – | – | < 1 | – | – | – | – | –
